# Measurements as given in paper PMC8626637, “Successful Prediction of Human Fetal Exposure to P-Glycoprotein Substrate Drugs Using the Proteomics-Informed Relative Expression Factor Approach and PBPK Modeling and Simulation” (Drug Metabolism and Disposition, 2021).
# Several values for one entry are separate records, joined by “and”; a condition that tells them apart may be missing. Identical values can stand only once. Like-named read-outs stand apart in the source and are kept apart here.
# Legend:
# [1] = system: 11 β-hydroxysteroid dehydrogenase-2; set-up: method as in Blanford and Murphy, 1977; Murphy et al., 2007; conditions: ref Blanford and Murphy, 1977, Murphy et al., 2007; cited from earlier work
# [2] = ref DrugBank database; cited from earlier work
# P-gp [3] = target: T1, P-gp (Homo sapiens, UniProt P08183); experiment: in vitro; conditions: MDCK-MDR1, pH 7.4
# [4] = Estimation of in vivo transplacental passive diffusion clearance by scaling midazolam CLint,PD,placenta with Papp ratio; set-up: species or system human; conditions: at term, scaled from midazolam by Papp ratio
# [5] = Observed or PopPK-model (published) maternal and fetal UV plasma pharmacokinetics in pregnant women; conditions: coadministered with RTV
# P-gp [6] = target: T1, P-gp; conditions: for ERP-gp ERTRQ(−) − ERTRQ(+): P-gp-mediated efflux ratio
# placental P-gp = experiment: m-f PBPK prediction of maternal-fetal pharmacokinetics at gestational week 20 (GW20); set-up: species or system human
# Text: GW20 was chosen since this is the earliest gestational age at which all the fetal physiologic parameters (e.g., organ volumes, partition coefficients, blood flows) are available.
# MDCKII or Caco-2 cells = conditions: determined in MDCKII or Caco-2 cells; ref Zhang and Unadkat, 2017; cited from earlier work
# [7] = in vivo, at term; ref Zhang and Unadkat, 2017; cited from earlier work
# T1 sequence (P08183 whole entry, the tested form may be a part): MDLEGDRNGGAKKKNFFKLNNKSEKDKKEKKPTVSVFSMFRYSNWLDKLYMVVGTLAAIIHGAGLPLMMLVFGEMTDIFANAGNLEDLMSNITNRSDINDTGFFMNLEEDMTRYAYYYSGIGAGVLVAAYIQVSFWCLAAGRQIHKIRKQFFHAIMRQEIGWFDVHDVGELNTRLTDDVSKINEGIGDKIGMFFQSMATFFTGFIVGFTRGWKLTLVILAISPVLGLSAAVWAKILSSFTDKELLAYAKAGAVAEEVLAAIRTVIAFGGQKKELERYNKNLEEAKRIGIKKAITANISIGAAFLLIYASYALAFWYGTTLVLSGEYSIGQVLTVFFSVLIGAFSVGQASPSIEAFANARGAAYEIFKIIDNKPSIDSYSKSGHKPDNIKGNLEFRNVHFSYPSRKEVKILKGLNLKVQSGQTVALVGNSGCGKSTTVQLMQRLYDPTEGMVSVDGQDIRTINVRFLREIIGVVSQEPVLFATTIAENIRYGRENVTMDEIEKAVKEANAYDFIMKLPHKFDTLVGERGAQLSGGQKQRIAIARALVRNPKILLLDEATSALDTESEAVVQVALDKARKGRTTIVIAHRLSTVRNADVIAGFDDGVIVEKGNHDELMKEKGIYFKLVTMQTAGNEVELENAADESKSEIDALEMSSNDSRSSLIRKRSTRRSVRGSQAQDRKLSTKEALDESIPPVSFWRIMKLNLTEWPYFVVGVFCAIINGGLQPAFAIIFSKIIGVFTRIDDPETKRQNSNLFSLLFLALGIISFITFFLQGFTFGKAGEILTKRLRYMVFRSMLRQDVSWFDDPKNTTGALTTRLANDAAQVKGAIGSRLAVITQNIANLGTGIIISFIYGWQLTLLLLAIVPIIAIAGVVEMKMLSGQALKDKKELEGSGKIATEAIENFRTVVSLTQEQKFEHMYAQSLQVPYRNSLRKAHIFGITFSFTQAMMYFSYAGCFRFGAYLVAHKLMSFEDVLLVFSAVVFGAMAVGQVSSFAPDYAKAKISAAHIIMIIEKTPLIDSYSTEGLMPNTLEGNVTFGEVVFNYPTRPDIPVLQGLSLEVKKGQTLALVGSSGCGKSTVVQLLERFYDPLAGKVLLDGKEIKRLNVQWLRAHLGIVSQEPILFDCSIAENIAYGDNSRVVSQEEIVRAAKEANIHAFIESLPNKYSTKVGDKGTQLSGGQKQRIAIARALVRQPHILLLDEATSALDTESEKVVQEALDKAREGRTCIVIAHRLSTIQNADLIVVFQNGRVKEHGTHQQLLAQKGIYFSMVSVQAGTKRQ
structure (smiles),measurement,setting,value
"C[C@H]1C[C@H]2[C@@H]3CCC4=CC(=O)C=C[C@]4(C)[C@@]3(F)[C@@H](O)C[C@]2(C)[C@@]1(O)C(=O)CO [BET, betamethasone]",metabolized over 6 hours in vitro in placental microsomes,[1],10%–15%
"C[C@@H]1C[C@H]2[C@@H]3CCC4=CC(=O)C=C[C@]4(C)[C@@]3(F)[C@@H](O)C[C@]2(C)[C@@]1(O)C(=O)CO [DEX, dexamethasone]",metabolized over 6 hours in vitro in placental microsomes,[1],10%–15%
"CC(C)CN(C[C@@H](O)[C@H](Cc1ccccc1)NC(=O)O[C@H]1CO[C@H]2OCC[C@H]21)S(=O)(=O)c1ccc(N)cc1 [DRV, darunavir]",solubility,[2],16 µM
"Cc1cccc(C)c1OCC(=O)N[C@@H](Cc1ccccc1)[C@@H](O)C[C@H](Cc1ccccc1)NC(=O)[C@H](C(C)C)N1CCCNC1=O [LPV, lopinavir]",Papp,P-gp [3],12.5 ×10⁻⁶ cm/s
same,"CLint,PD,placenta",[4],127 L/h
same,observed increase in maternal clearance in pregnancy,[5],1.4 fold
same,ERP-gp ERTRQ(−) − ERTRQ(+),P-gp [6]; Mean ± S.D. of 4 experiments,83.1 ± 10.1 and 83.1 ± 10.05
same,ERP-gp ERTRQ(−) − ERTRQ(+),P-gp [6]; individual experiments (Exp no. 1-4),94.35 and 88.78 and 73.99 and 75.27
same,ERTRQ(−),"P-gp [6]; efflux ratio without tariquidar, individual experiments (Exp no. 1-4, each in triplicate), 2 µM DEX, BET, DRV, 1 µM LPV",95.37 and 90.07 and 75.63 and 76.57
same,solubility,[2],3 µM
same,"CLint,P-gp,placenta","placental P-gp; GW20, adjusted for total placental P-gp abundance",617 L/h
same,"CLint,PD,placenta","placental P-gp; GW20, from term value adjusted for placental surface area",49.5 L/h
same,"CLint,P-gp,placenta at GW20, lower than the corresponding value at GW38",placental P-gp; GW20 versus GW38,40%
same,"fetal Kp,uu at GW20 as percent of that at GW38",placental P-gp; m-f PBPK predicted,64%
same,fetal UV plasma AUC0-12 at GW20 as percent of that at GW38,placental P-gp; m-f PBPK predicted,38%
same,fetal plasma Cmax at GW20 as percent of that at GW38,placental P-gp; m-f PBPK predicted,41%
"Cc1ncc2n1-c1ccc(Cl)cc1C(c1ccccc1F)=NC2 [MDZ, midazolam]",Papp,MDCKII or Caco-2 cells,49 ×10⁻⁶ cm/s
same,"CLint,PD,placenta",[7],500 L/h
"C=C[C@H]1C[N@@]2CC[C@H]1C[C@@H]2[C@@H](O)c1ccnc2ccc(OC)cc12 [QND, Quinidine]",efflux ratio at 3 µM,P-gp [3],11.1 ± 2.5
